In publication PMC6733959, “Synthesis and Evaluations of Novel Apocynin Derivatives as Anti-Glioma Agents” (Frontiers in Pharmacology, 2019):

What was measured:
[1] = cited from earlier work; for BBB penetration rate relative to morphine: ref Oldendorf et al., 1972
[2] = Transport experiment in the in vitro BBB cell model; format: in vitro ADME; details: Sprague-Dawley, rat, apical to basolateral, mean ± SD (n = 3-4), read-out: Papp × 10^−6; for Papp at 90 min, 100 μM: C0 100 μM; for Papp at 90 min, 20 μM: C0 20 μM
Procedure: (§1) Rat brain microvascular endothelial cells (BMECs) were separated from the cerebral cortex of 18-day-old male Sprague-Dawley rats as described previously ([Biegel et al., 1995]). Briefly, the cerebral cortical tissues were dissected from meninges after the rats were sacrificed, then the tissues were homogenated in physiological buffer solution (pH 7.4). After centrifugation, the pellets were collected, and the microvascular segments were then digested with 0.1% collagenase II at 37°C for 1 h. […] The second passage was used for co-culture of BBB cellular models.
Astrocytes were separated from the cerebral cortex of newborn Sprague-Dawley rats (1–2 days) as described previously ([Jeliazkova-Mecheva and Bobilya, 2003]). The brain tissues (removal of the meninges and blood vessel) were minced and mechanical homogenized and then digested with 0.25% trypsin-EDTA at 37°C for 10 min.
The in vitro BBB cell model was constructed in the Transwell 24well plate ([…], Millipore, USA). Before the experiment, the transwell filters were coated with matrigel matrix. The isolated rat astroglias were seeded onto one side of polycarbonate inserts (5 × 10^4 cells/insert). After 3 to 5 days, the rat BMECs were seeded at a density of 1.5 × 10^5 cells/insert onto the opposite side of the inserts to produce rat BMEC monolayers. The in vitro BBB cell model was formed 3 to 4 days. Trans-epithelial electrical resistance (TEER) measurements were performed everyday after the co-cultures formed until the TEER value increased to […] ([Yang et al., 2014]) ( Figure 2C ).
The transport experiments were performed by adding 400 μl HBSS containing the compounds to the apical side (AP), with 600μl HBSS to the basolateral side (BL) at the same time. Samples (60 μl) were collected from the BL chamber at the time points of 15, 30, 60, 90, 120, and 180 min, and the corresponding volume of HBSS buffer was immediately added into the BL chamber. The samples were precipitated by methanol, and the concentrations of the compounds in the samples were determined by high-performance liquid chromatography (HPLC). The HPLC conditions were as follows: Agilent TC-C18 column (250 × 4.6 mm; 5 μm), methanol 1% ethanoic acid mobile phase (from 10:90 to 90:10, v/v), with gradient elution at a flow rate of 1.0 ml/min. The detection wavelength was 275 nm for these compounds. The run time was 20 min. The apparent permeability coefficients (P app) were calculated from the following formula: P app = (∆Q/∆t)/(A × C 0), where ∆Q/∆t is the linear appearance rate of the compound on the BL side (μmol/s), A is the surface area of the cell monolayer (cm^2), and C 0 is the initial concentration of the drug on the AP side (μmol/L).

BMECs = test: MTT assay on normal BMECs (48 and 96 h); format: cell-based; details: Rattus norvegicus
Procedure: as §1
(§2) The anti-glioma effects of these compounds were evaluated by MTT assay in rat C6 glioma cells, human glioma U87 and U251 cells, and BMECs cells. Brieﬂy, cells were seeded at the density of 4,000 cells/well in 96-well plates overnight. For the first screening, the cells were incubated with 10, 20, 100 μM compounds for 48 h. Then cell viabilities were detected by MTT assay as described above. For the second screening, the cells were incubated with 6.25-, 12.5-, 25-, 50-, and 100μM compounds for 48 and 96 h, and then detected by MTT assay. The OD of each well was measured at 490 nm on an ELISA microplate reader. The inhibitory rates and IC50 values were calculated.

human glioma U87 cells = test: Anti-glioma MTT assay, U87 cells; format: cell-based; details: for Anti-proliferation effect on U87 cells (first screening): 10, 20, 100 μM, compared with D1, P < 0.05; for IC50: Homo sapiens, U-87 MG, U87 cells
Procedure: as §2

C6 glioma = test: Rat C6 glioma model; format: in vivo; details: C6 glioma-bearing Wistar rats, 25 mg/kg i.p. daily; for Tumor volume vs control group: MRI 13 days after treatment
Procedure: C6 glioma model was established as previously reported ([Xu etal., 2016]). The C6 glioma cells in the logarithmic growth phase were collected for implantation. Male Wistar rats (male, 160–180g) were anesthetized with 10% chloral hydrate, and then a hole (1 mm diameter) was drilled in the cranial bone. C6 cells in PBS were injected slowly (3 × 10^6 cells/rat).
Tumors in the brains of the rats were detected by Bruker 7.0 T Micro-MRI using a T2W RARE sequence (TR/TE 3000/15 ms; slice thickness, 1.0 mm; flip angle, 180°; Matrix 256×256; slice gap, 1.0 mm; FOV, 33×33 mm; time, 4.8 min) 7 days after implantation. Tumor volumes (V) were calculated by the following formula: V = (4/3 × π × LHW)/8, where L is the maximum anteroposterior diameter, H and W are the height and width. Then the rats were sacrificed, and the brain tissues were fixed with formalin, embedded in paraffin, sectioned, and subjected to hematoxylin/eosin (HE) staining and immunohistochemical staining for glial fibrillary acidic protein (GFAP) as previously described ([Xu et al., 2016]). The sections from each animal were analyzed by a pathologist. Only rats with maximum intracerebral tumor diameter of >5.0 mm were used.
After the successful implantation, the rats were randomly divided into […] and treated with different drugs by intraperitoneal injection daily: control group (PBS, n = 6), TMZ group (25 mg/kg, n = 6), D14 group (25 mg/kg, n = 6), and D31 group (25 mg/kg, n = 6). The body weights were recorded everyday after administration. Thirteen days after treatment, brain tumors in the rats were detected by Bruker 7.0 T Micro-MRI as described above. Tumor volumes were calculated and recorded as above.

rat C6 glioma cells = test: Anti-glioma MTT assay, C6 cells; format: cell-based; details: for Anti-proliferation effect on C6 cells (first screening): 10, 20, 100 μM, compared with D1, P < 0.05; for IC50: Rattus norvegicus, C6 cells
Procedure: as §2

human glioma U251 cells = test: Anti-glioma MTT assay, U251 cells; format: cell-based
Procedure: as §2

rat BMECs = test: Cytotoxicity of apocynin derivatives on rat BMECs (MTT, 24 h); format: cell-based; details: 100 μM, vs control, P < 0.05
Procedure: as §1
Rat BMECs were collected and seeded into 96-well culture plates at a density of 7.5 × 10^3 cells/well overnight. The cells were treated with different concentrations of the compounds (10, 20, and 100 μM) for 24 h, respectively. Then, 20-μl MTT (5 mg/ml) in fresh medium was added to each well and incubated for another 4 h. Finally, 150μl dimethyl sulfoxide (DMSO) was added to dissolve formazan crystals, and the absorbance was detected at 490 nm in a multiwall-plate reader (BioTek ELx800).

[3] = parameters: method as in Wang et al., 2008; details: ref Wang et al., 2008; cited from earlier work
NADPH oxidase (NOX) [4] = test: NOX activity determination, C6 cells; format: cell-based, rat; details: 20 and 50 μM
Procedure: (§3) The effects of candidate drug on NOX activities were measured using cytochrome c reductase (NADPH) Assay Kit (Sigma-Aldrich, St. Louis, MO, USA). Brieﬂy, after the compound treatment (20, 50 μM), the cells were collected and homogenized in an isotonic buffer ([…]), and centrifuged at 1,000 g to obtain the post-nuclear supernatants. Then 50μl samples were added to 950μl working solution (at 25°C) in a 1ml cuvette and mixed by inversion. Then 20μl cytochrome c oxidase inhibitor solution was added. After reaction with 100 μl NADPH solution, the cytochrome c absorbance was monitored at 550 nm by a spectrophotometer.

NADPH oxidase (NOX) [5] = test: NOX activity determination, U87 cells; format: cell-based, human; details: 20 and 50 μM
Procedure: as §3

## CCC1(c2ccccc2)C(=O)NC(=O)NC1=O [Phenobarbital, 5-ethyl-5-phenylbarbituric acid]
[1]; ref Liu et al., 2007
  BBB penetration rate relative to barbituric acid: increased BBB penetration rate

## COc1cc(C(=O)CNc2ccc(F)cc2)ccc1OCc1ccccc1 [Compound D6, 1-(4-(Benzyloxy)-3-Methoxyphenyl)-2-((4-Fluorophenyl)Amino) Ethan-1-One]
[2]
  Papp at 90 min, 100 μM: 8.68 ± 0.45 ×10⁻⁶ cm/s

## COc1ccc2c3c1O[C@H]1[C@@H](O)C=C[C@H]4[C@@H](C2)N(C)CC[C@@]341 [codeine]
[1]
  BBB penetration rate relative to morphine: 10 times

## COc1cc(C(=O)CNc2ccc(Cl)cc2)ccc1O [Compound D22, 2-((4-Chlorophenyl)Amino)-1-(4-Hydroxy-3-Methoxyphenyl)Ethan-1-One]
[2]
  Papp at 90 min, 100 μM: 5.42 ± 0.58 ×10⁻⁶ cm/s

## COc1cc(C(=O)CNc2ccccc2)ccc1OCc1ccccc1 [Compound D5, 1-(4-(Benzyloxy)-3-Methoxyphenyl)-2-(Phenylamino)Ethan-1-One]
[2]
  Papp at 90 min, 100 μM: 10.3 ± 0.31 ×10⁻⁶ cm/s

## COc1cc(C(=O)CNc2ccc(F)cc2)ccc1O [Compound D14, 2-((4-Fluorophenyl)amino)-1-(4-Hydroxy-3-Methoxyphenyl)Ethan-1-One]
BMECs; 48 h
  IC50: > 100 µM
BMECs; 96 h
  IC50: 78.2 µM
Human glioma U87 cells; 48 h
  Anti-proliferation effect on U87 cells (first screening): significant anti-proliferation effects
  IC50: 61.6 µM
Human glioma U87 cells; 96 h
  IC50: 60.1 µM
[2]
  Papp at 90 min, 20 μM: 4.24 ± 1.3 ×10⁻⁶ cm/s
C6 glioma
  Body weight changes vs control group: no obvious body weight changes
  Tumor volume vs control group: no obvious growth inhibitory effects
Rat C6 glioma cells; 48 h
  Anti-proliferation effect on C6 cells (first screening): significant anti-proliferation effects
  IC50: 37.2 µM
Rat C6 glioma cells; 96 h
  IC50: 22.9 µM
Human glioma U251 cells; U-251, 48 h
  IC50: 71.6 µM
Human glioma U251 cells; U-251, 96 h
  IC50: 34.5 µM
Rat BMECs
  Effect on cell viability of rat BMECs: significantly inhibit the cell viability

## COc1cc(C(=O)CNc2ccccc2)ccc1O [Compound D13, 1-(4-Hydroxy-3-Methoxyphenyl)-2-(Phenylamino)Ethan-1-One]
[2]
  Papp at 90 min, 20 μM: 5.41 ± 0.52 ×10⁻⁶ cm/s
Rat C6 glioma cells; 48 h
  Anti-proliferation effect on C6 cells (first screening): significant anti-proliferation effects
Rat BMECs
  Effect on cell viability of rat BMECs: significantly inhibit the cell viability

## COc1cc(NCC(=O)c2ccc(O)c(OC)c2)cc(OC)c1 [Compound D16, 2-((3,5-Dimethoxyphenyl)Amino)-1-(4-Hydroxy-3-Methoxyphenyl)Ethan-1-One]
[2]
  Papp at 90 min, 20 μM: 2.54 ± 0.58 ×10⁻⁶ cm/s
Rat BMECs
  Effect on cell viability of rat BMECs: significantly inhibit the cell viability

## COc1cc(C(=O)CNc2ccc(F)cc2F)ccc1O [Compound D21, 2-((2,4-Difluorophenyl)Amino)-1-(4-Hydroxy-3-Methoxyphenyl)Ethan-1-One]
[2]
  Papp at 90 min, 100 μM: 6.08 ± 0.65 ×10⁻⁶ cm/s

## COc1cc(C(C)=O)ccc1O [Compound D1, 4-hydroxy-3-methoxyacetophenone, reference compound]
[3]
  Amount in the brain tissue relative to that present in the blood: < 8%
NADPH oxidase (NOX) [4]
  Effect on NOX activities vs control: significantly inhibited
[2]
  Papp at 90 min, 20 μM: 4.95 ± 0.39 ×10⁻⁶ cm/s
Rat BMECs
  Effect on cell viability of rat BMECs: significantly inhibit the cell viability
NADPH oxidase (NOX) [5]
  Effect on NOX activities vs control: significantly inhibited

## Cn1nnc2c(C(N)=O)ncn2c1=O [TMZ, Temozolomide, reference compound]
BMECs; 48 h
  IC50: 94.5 µM
BMECs; 96 h
  IC50: 54.4 µM
Human glioma U87 cells; 48 h
  Anti-proliferation effect on U87 cells (first screening): significant anti-proliferation effects
  IC50: 54.1 µM
Human glioma U87 cells; 96 h
  IC50: 28.4 µM
[2]
  Papp at 90 min, 20 μM: 7.74 ± 0.34 ×10⁻⁶ cm/s
C6 glioma
  Body weight changes vs control group: no obvious body weight changes
  Tumor volume vs control group: significantly decreased
Rat C6 glioma cells; 48 h
  Anti-proliferation effect on C6 cells (first screening): significant anti-proliferation effects
  IC50: 51.1 µM
Rat C6 glioma cells; 96 h
  IC50: 36.8 µM
Human glioma U251 cells; U-251, 48 h
  IC50: 48.1 µM
Human glioma U251 cells; U-251, 96 h
  IC50: 15.3 µM
Rat BMECs
  Effect on cell viability of rat BMECs: significantly inhibit the cell viability

## COc1cc(C(=O)CSCc2ccc(F)cc2)ccc1O [Compound D34, 2-((4-Fluorobenzyl)Thio)-1-(4-Hydroxy-3-Methoxyphenyl)Ethan-1-One]
[2]
  Papp at 90 min, 20 μM: 11.9 ± 1.53 ×10⁻⁶ cm/s
Rat C6 glioma cells; 48 h
  Anti-proliferation effect on C6 cells (first screening): significant anti-proliferation effects
Rat BMECs
  Effect on cell viability of rat BMECs: significantly inhibit the cell viability

## COc1cc(C(=O)CSCc2ccccc2)ccc1O [Compound D33, 2-(Benzylthio)-1-(4-Hydroxy-3-Methoxyphenyl)Ethan-1-One]
[2]
  Papp at 90 min, 20 μM: 9.58 ± 2.35 ×10⁻⁶ cm/s
Rat C6 glioma cells; 48 h
  Anti-proliferation effect on C6 cells (first screening): significant anti-proliferation effects
Rat BMECs
  Effect on cell viability of rat BMECs: significantly inhibit the cell viability

## CC(=O)Oc1ccc2c3c1O[C@H]1[C@@H](OC(C)=O)C=C[C@H]4[C@@H](C2)N(C)CC[C@@]341 [heroin, diacetylmorphine]
[1]
  BBB penetration rate relative to morphine: 100 times
